Experimental data from patent US10695347B2, “Pyrimidine derivative and use thereof” (Hubei Bio-Pharmaceutical Industrial Technological Institute …, priority 2015, dated 2020).
Like-named read-outs stand apart in the source and are kept apart here.

Columns and labels:
ALK = ALK (Homo sapiens (Human), UniProt Q9UM73); experiment: Inhibition of ALK kinase activity (Caliper mobility shift); type: biochemical
Protocol: (§1) Inhibition of Compound I Against ALK Kinase Activity
(§2) • I. Preparation of 1× kinase buffer and stop buffer
(§3) 1) 1× Kinase Buffer • 50 mM HEPES. pH 7.5 • 0.0015% Brij-35 • 10 mM MgCl2 • 2 mM DTT • 2) stop buffer • 100 mM HEPES, pH 7.5 • 0.015% Brij-35 • 0.2% Coating Reagent #3 • 50 mM EDTA
(§4) 2. Prepare a Compound Solution to be Tested • Step 2.1 Dilute the compound to 50× of the final desired highest inhibitor concentration in reaction by 100% DMSO. Transfer 100 μl of this compound dilution to a well in a 96-well plate. For example, if desired highest inhibitor concentration is 1 μM, then prepare 50 μM of compound DMSO solution in this step.
(§5) Step 2.2 Further dilute said compound dilution by 3-fold in series, thus obtain 10 concentrations.
(§6) Step 2.3 Add 100 μl of 100% DMSO to two empty wells for no compound control and no enzyme control in the same 96-well plate. Mark the plate as source plate.
(§7) Step 2.4 Prepare an intermediate plate
(§8) Transfer 10 μl of each compound from the source plate to a new 96-well plate as the intermediate plate.
(§9) Add 90 μl of 1× kinase buffer to each well of the intermediate plate. Mix the compounds in the intermediate plate for 10 min on a shaker.
(§10) Transfer 5 μl of each well from the 96-well intermediate plate to a 384-well plate in duplicate. For example, A1 of the 96-well plate is transferred to A1 and A2 of the 384-well plate. A2 of the 96-well plate is transferred to A3 and A4 of the 384-well plate, and so on.
(§11) 4.1 Prepare a 2.5× kinase solution
(§12) Add kinase in 1× kinase base buffer, thus obtain the 2.5× kinase solution.
(§13) 4.2 Prepare a 2.5× peptide solution
(§14) 4.3 In each well of the assay plate obtained in step 3, there was 5 μL of the compound in 10% DMSO.
(§15) 4.4 Transfer the 2.5× enzyme solution to the assay plate.
(§16) 4.5 Incubate at room temperature for 10 min.
(§17) 4.6 Transfer the 2.5× peptide solution to the assay plate.
(§18) 4.7 Kinase reaction and stop
(§19) Incubate at 28° C. for 20 min.
(§20) Add 25 μl of stop buffer to stop reaction.
(§21) Conversion rate of the kinase was read via the Caliper.
(§22) 6.1 Copy conversion data from Caliper program.
(§23) 6.2 Convert conversion values to inhibition values with the following formula: Percent inhibition=(max−conversion)/(max−min)*100
(§24) where “max” stands for DMSO control; and “min” stands for low control.
(§25) 6.3 Fit the data in XLfit excel add-in version 4.3.1 and obtain IC50 values according to the following formula: Y=Bottom+(Top−Bottom)/[…].

Karpas299 cells = experiment: Suppression of Karpas299 cell proliferation (CellTiter-Glo); type: cell-based; conditions: 3 days incubation, read-out: Inhibition activity on Karpas299 cells IC50
Protocol: (§26) As the amount of ATP can indicate the number of living cells directly, the living cells in culture are able to be quantified by determining the ATP level. In our experiment, we use a living-cell testing kit to quantify the living cells, which utilizes UltraGlow luciferase to generate a stable glow signal in the presence of ATP which is produced by metabolism of living cells, such as respiration. Specifically, a reagent CellTiter-Glo™ was added into cell culture media, and then the luminescent intensity was determined to measure proliferation of cells, as the luminescent intensity is in direct proportion to the ATP level which correlates positively to the number of living cells. The test plate was tested with the Envision (PE).
Cell media: RPMI-1640 medium, fetal calf serum (FCS), antibiotics (Penicillin-Streptomycin)
Assay reagent: Cell Viability Assay Kit CellTiter-Glo
(§27) Others: a 96-well plate, a 384-well plate, DMSO
(§28) Step 3.1 Culturing test cells
Karpas 299 cells were plated into a black 384-well plate, with 2500 cells in 45 μl cell suspension per well. The plate was placed in a carbon dioxide incubator overnight.
(§29) Step 3.2 Preparation of the compounds to be tested
Each compound to be tested was dissolved in DMSO at 10 mM as the stock solution, which was left in a nitrogen-gas tank for storage.
After dilution of 10 μL stock solution (10 mM) into 2.5 mM as a starting working solution, 10 concentrations of the working solutions from 5 μM to 0.25 nM were obtained in duplicate by further dilution in 3-fold series with ECHO.
Step 3.3 Mixing the compound with the test cells
To each well of a new 96-well plate were added 49 μl medium and 1 μl of the compounds to be tested at individual working concentrations (10 concentrations in total). After oscillation,
5 μl of mixture in each well of the 96-well plate was transferred into corresponding wells in the 384-well plate in the step 3.1. The 384-well plate was incubated in the carbon dioxide incubator for 3 days.
To each well of the 384-well plate was added […] reagent Promega CellTiter-Glo. and incubated at room temperature for 10 minutes to stabilize the luminescence signal. The results were read with the PerkinElmer Envision Multi-mode Plate Reader.

Ba/F3 EML4-ALK cells = experiment: Suppression of Ba/F3 EML4-ALK cell proliferation (CellTiter-Glo); type: cell-based; conditions: 3 days incubation
Description: Cell media: RPMI-1640 medium, fetal calf serum (FCS), antibiotics (Penicillin-Streptomycin), IL-3, puromycin
Cell line: Ba/F3 EML4-ALK
Assay reagent: Cell Viability Assay Kit Celliter-Glo
as §27
as §26, with “in medium” for “in culture”, “a cell viability assay” for “a living-cell testing”, “was assayed by” for “was tested with”
as §28
Ba/F3 EML4-ALK cells were planted into a 384-well plate, with almost 300 cells per well. The plate was placed in a carbon dioxide incubator overnight.
as §29
10 concentrations of the working solutions were obtained in duplicate by dilution in 3-fold series with BRAVO.
Step 3.3 Mixing the compound to be tested with the test cells
The compounds to be tested at individual working concentrations were transferred into corresponding wells in the 384-well plate in the step 3.1, with 5 μM as the initial working concentration, and then the 384-well plate was incubated in the carbon dioxide incubator for 3 days.
To each well of the 384-well plate was added the reagent Promega CellTiter-Glo, and incubated at room temperature for 10 minutes to stabilize the luminescence signal. The results were read by the PerkinElmer Envision Multi-mode Plate Reader.

ALK L1196M = ALK L1196M (Homo sapiens (Human), UniProt Q9UM73, L1196M); experiment: Inhibition of ALK L1196M kinase activity (Caliper mobility shift); type: biochemical
Chain of ALK L1196M (Q9UM73 19-1620 L1196M): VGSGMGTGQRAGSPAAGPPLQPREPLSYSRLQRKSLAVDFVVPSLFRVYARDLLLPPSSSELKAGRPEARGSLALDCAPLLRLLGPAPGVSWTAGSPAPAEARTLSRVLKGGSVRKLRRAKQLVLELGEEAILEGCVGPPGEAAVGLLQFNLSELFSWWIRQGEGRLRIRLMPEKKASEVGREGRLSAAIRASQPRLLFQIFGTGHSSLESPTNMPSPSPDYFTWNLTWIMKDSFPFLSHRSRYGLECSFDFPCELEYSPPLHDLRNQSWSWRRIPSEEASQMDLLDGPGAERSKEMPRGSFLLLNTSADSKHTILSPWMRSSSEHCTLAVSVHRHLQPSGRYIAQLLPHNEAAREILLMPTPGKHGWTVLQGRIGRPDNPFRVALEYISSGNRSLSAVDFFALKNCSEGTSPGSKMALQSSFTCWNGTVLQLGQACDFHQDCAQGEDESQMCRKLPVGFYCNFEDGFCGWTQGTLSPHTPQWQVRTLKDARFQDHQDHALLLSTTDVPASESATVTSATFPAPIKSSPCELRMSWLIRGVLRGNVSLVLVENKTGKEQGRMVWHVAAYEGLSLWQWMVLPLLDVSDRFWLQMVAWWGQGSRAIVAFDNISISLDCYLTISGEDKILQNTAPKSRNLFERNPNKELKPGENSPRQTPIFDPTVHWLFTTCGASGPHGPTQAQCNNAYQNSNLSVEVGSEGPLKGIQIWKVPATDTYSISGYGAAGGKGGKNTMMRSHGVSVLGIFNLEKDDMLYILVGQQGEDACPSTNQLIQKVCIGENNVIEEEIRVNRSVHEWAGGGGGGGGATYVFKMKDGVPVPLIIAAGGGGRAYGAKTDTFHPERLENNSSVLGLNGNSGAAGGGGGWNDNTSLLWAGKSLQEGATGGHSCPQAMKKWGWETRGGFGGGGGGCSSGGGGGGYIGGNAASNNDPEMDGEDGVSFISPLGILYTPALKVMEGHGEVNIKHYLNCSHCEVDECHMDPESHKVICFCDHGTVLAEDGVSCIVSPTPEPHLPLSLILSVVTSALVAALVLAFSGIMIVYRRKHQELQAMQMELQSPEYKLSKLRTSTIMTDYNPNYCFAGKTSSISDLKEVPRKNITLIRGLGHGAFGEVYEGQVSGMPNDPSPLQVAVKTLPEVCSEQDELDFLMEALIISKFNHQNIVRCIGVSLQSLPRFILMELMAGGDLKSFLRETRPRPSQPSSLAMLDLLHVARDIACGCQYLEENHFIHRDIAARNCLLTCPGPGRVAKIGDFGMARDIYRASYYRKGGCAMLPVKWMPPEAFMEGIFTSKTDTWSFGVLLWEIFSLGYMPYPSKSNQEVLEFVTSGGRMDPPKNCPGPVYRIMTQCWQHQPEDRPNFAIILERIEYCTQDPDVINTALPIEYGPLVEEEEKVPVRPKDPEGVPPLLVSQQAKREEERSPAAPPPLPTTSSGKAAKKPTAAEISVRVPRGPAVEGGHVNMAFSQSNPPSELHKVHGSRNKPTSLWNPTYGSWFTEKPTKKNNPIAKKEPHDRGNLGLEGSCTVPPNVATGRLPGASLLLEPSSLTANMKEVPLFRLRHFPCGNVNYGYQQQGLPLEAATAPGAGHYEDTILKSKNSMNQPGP
Protocol: as §1, §2, §3, §4, §5, §6, §7, §8, §9, §10, §11, §12, §13, §14, §15, §16, §17, §18, §19, §20, §21, §22, §23, §24, §25

ALK-positive NSCLC = conditions: 88 patients with ALK-positive NSCLCs who had undergone Crizotinib therapy, early clinical trial; cited from earlier work

Chain of ALK (Q9UM73 19-1620): as the sequence (Q9UM73 19-1620 L1196M) above, with M1178L counted along it

Compound: COc1cc(N2CCC(N(C)C)CC2)c(C)cc1Nc1ncc(Cl)c(Nc2cccnc2S(=O)(=O)C(C)C)n1 [Compound I-98, 5-chloro-N^2-(4-(4-(dimethylamino)piperidin-1-yl)-2-methoxy-5-methylphenyl)-N^4-(2-(isopropylsulfonyl)pyridin-3-yl) pyrimidine-2,4-diamine]
- IC50 (ALK): < 0.001 µM
- IC50 (Karpas299 cells; Homo sapiens, KARPAS-299, 72 h): < 0.05 µM
- IC50 (Ba/F3 EML4-ALK cells; Ba/F3 EML4-ALK, 72 h): 0.02 to 0.1 µM
- IC50 (ALK L1196M): < 0.001 µM

Compound: CC(C)S(=O)(=O)c1ncccc1Nc1nc(Nc2ccc(N3CCC(N(C)C)CC3)cc2OC(F)F)ncc1Cl [Compound I-100, 5-chloro-N^2-(2-(difluoromethoxy)-4-(4-(dimethylamino)piperidin-1-yl)phenyl)-N^4-(2-(isopropylsulfonyl)pyridin-3-yl) pyrimidine-2,4-diamine]
- IC50 (ALK): 0.001 to 0.01 µM
- IC50 (Karpas299 cells; Homo sapiens, KARPAS-299, 72 h): < 0.05 µM
- IC50 (Ba/F3 EML4-ALK cells; Ba/F3 EML4-ALK, 72 h): 0.02 to 0.1 µM
- IC50 (ALK L1196M): 0.001 to 0.01 µM

Compound: Cc1cc(Nc2ncc(Cl)c(Nc3ccccc3S(=O)(=O)C(C)C)n2)c(OC(F)F)cc1N1CCC(N(C)C)CC1 [Compound I-102, 5-chloro-N^2-(2-(difluoromethoxy)-4-(4-(dimethylamino)piperidin-1-yl)-5-methylphenyl)-N^4-(2-(isopropylsulfonyl)phenyl) pyrimidine-2,4-diamine]
- IC50 (ALK): 0.001 to 0.01 µM
- IC50 (Karpas299 cells; Homo sapiens, KARPAS-299, 72 h): 0.05 to 0.1 µM
- IC50 (Ba/F3 EML4-ALK cells; Ba/F3 EML4-ALK, 72 h): < 0.02 µM
- IC50 (ALK L1196M): < 0.001 µM

Compound: COc1cc(CN2CCC(N(C)C)CC2)ccc1Nc1ncc(Cl)c(Nc2ccccc2S(=O)(=O)C(C)C)n1 [Compound I-109]
- IC50 (ALK): 0.001 to 0.01 µM
- IC50 (Karpas299 cells; Homo sapiens, KARPAS-299, 72 h): 0.05 to 0.1 µM
- IC50 (Ba/F3 EML4-ALK cells; Ba/F3 EML4-ALK, 72 h): < 0.02 µM
- IC50 (ALK L1196M): 0.001 to 0.01 µM

Compound: COc1cc(CN2CCC(N(C)C)CC2)ccc1Nc1ncc(Cl)c(Nc2ccccc2S(=O)(=O)C(C)C)n1 [Compound I-110]
- IC50 (ALK): 0.001 to 0.01 µM
- IC50 (Karpas299 cells): < 0.05 µM
- IC50 (Ba/F3 EML4-ALK cells): < 0.02 µM
- IC50 (ALK L1196M): 0.001 to 0.01 µM

Compound: COc1cc(N2CCC(N(C)C)CC2)ccc1Nc1ncc(OC(F)F)c(Nc2ccccc2S(=O)(=O)C(C)C)n1 [Compound I-111, 5-(difluoromethoxy)-N^2-(4-(4-(dimethylamino)piperidin-1-yl)-2-methoxyphenyl)-N^4-(2-(isopropylsulfonyl)phenyl) pyrimidine-2,4-diamine]
- IC50 (ALK): < 0.001 µM
- IC50 (Karpas299 cells; Homo sapiens, KARPAS-299, 72 h): < 0.05 µM
- IC50 (Ba/F3 EML4-ALK cells; Ba/F3 EML4-ALK, 72 h): < 0.02 µM
- IC50 (ALK L1196M): < 0.001 µM

Compound: COc1cc(N2CCC(N(C)C)CC2)c(C)cc1Nc1ncc(OC(F)F)c(Nc2ccccc2S(=O)(=O)C(C)C)n1 [Compound I-112, 5-(difluoromethoxy)-N^2-(4-(4-(dimethylamino)piperidin-1-yl)-2-methoxy-5-methylphenyl)-N^4-(2-(isopropylsulfonyl)phenyl) pyrimidine-2,4-diamine]
- IC50 (ALK): < 0.001 µM
- IC50 (Karpas299 cells; Homo sapiens, KARPAS-299, 72 h): < 0.05 µM
- IC50 (Ba/F3 EML4-ALK cells; Ba/F3 EML4-ALK, 72 h): < 0.02 µM
- IC50 (ALK L1196M): < 0.001 µM

Compound: CC(C)Oc1cc(N2CCC(N(C)C)CC2)ccc1Nc1ncc(OC(F)F)c(Nc2ccccc2S(=O)(=O)C(C)C)n1 [Compound I-113, 5-(difluoromethoxy)-N^2-(4-(4-(dimethylamino)piperidin-1-yl)-2-isopropoxyphenyl)-N^4-(2-(isopropylsulfonyl)phenyl) pyrimidine-2,4-diamine]
- IC50 (ALK): < 0.001 µM
- IC50 (Karpas299 cells; Homo sapiens, KARPAS-299, 72 h): < 0.05 µM
- IC50 (Ba/F3 EML4-ALK cells; Ba/F3 EML4-ALK, 72 h): < 0.02 µM
- IC50 (ALK L1196M): < 0.001 µM

Compound: COc1cc(N2CCN(C(C)C)CC2)c(C)cc1Nc1ncc(OC(F)F)c(Nc2ccccc2S(=O)(=O)C(C)C)n1 [Compound I-115, 5-(difluoromethoxy)-N^2-(4-(4-isopropylpiperazin-1-yl)-2-methoxy-5-methylphenyl)-N^4-(2-(isopropylsulfonyl)phenyl) pyrimidine-2,4-diamine]
- IC50 (ALK): < 0.001 µM
- IC50 (Karpas299 cells): < 0.05 µM
- IC50 (Ba/F3 EML4-ALK cells): < 0.02 µM
- IC50 (ALK L1196M): < 0.001 µM

Compound: Cc1cc(Nc2ncc(Cl)c(Nc3ccccc3S(=O)(=O)C(C)C)n2)c(OC(C)C)cc1C1CCNCC1 [LDK378, Ceritinib]
- response rate (ALK-positive NSCLC): 80%
